Experimental data reported in patent US20060234329A1, “Method for determining the antiradical defense potential and use thereof, in particular in veterinary and human preventive therapeutics” (priority 2003, published 2006).

What was measured:
[1] = test system: whole blood, erythrocytes or blood plasma; assay: method of the invention: hydrolysis, then lysis by free radicals; format: cell-based; conditions: with hydrolysis according to the invention
Procedure: (§1) Sulfated ferulic acid (I) consequently comprises a double antiradical reserve which is usable by hydrolysis. The antiradical activity of these products was determined according to the prior KRL test without hydrolysis, on the one hand, and according to the invention after hydrolysis, on the other hand. The results obtained are set out in Table I which illustrates the value of hydrolysis according to the invention. [drawing 5]
The method of the invention has been standardised for use with whole blood, erythrocytes or blood plasma as the second cellular material. […] The T½ value and the other parameters stated above are then determined. […]
The sample to be tested (50 μl), which contains or is associated with whole blood, with erythrocytes or, respectively, with plasma and if necessary is diluted, is introduced into the dilution solution (220 μl) placed in the wells of a microplate. Hydrolysis is performed, the free radical generator is introduced, release of the free radicals is initiated and the T½ value and said other parameters are determined according to the methods stated above.
In practice, it is recommended to use the following quantities of enzymes, where U denotes the international unit of the enzyme in question: • β-glucosidase at a final concentration of 11.11 U/ml (3 U/well), • sulfatase at a final concentration of 3 U/ml (0.8 U/well), and/or • β-glucuronidase at a final concentration of 2222.22 U/ml (600 U/well). Other advantages and characteristics of the invention will be better understood on reading the Examples and tests stated hereafter. […]

[2] = test system: control whole blood; assay: prior KRL test without hydrolysis: lysis by free radicals; format: cell-based
Procedure: This known method has been standardised using whole human or animal blood, which is diluted, instead of the above-stated erythrocytes isolated from whole blood. The standardised method has been successfully marketed under the name “KRL Test” (kit radicaux libres [=free radical kit]) in particular for determining (i) the antiradical defence capacity of a human, animal or plant cellular tissue, or (ii) the possible antiradical properties of a physical, chemical or biological agent. More specifically, the KRL test is performed by 1) bringing (a) previously diluted control whole blood into contact in an appropriate buffer medium with (b) an agent to be tested (in particular a cellular material, a substance or a composition) and (c) a free radical generator, 2) inducing release of the free radicals, 3) monitoring the lysis kinetics of the erythrocytes from the control whole blood by measuring the absorbance of the reaction medium, then 4) comparing said latter value with that of control whole blood determined under the same conditions without the agent to be tested.
as §1

Row | SMILES | Antiradical activity relative to ferulic acid, with hydrolysis [1] | Antiradical activity relative to ferulic acid, without hydrolysis [2]
1 | COc1cc(/C=C/C(=O)O)ccc1OS(=O)(=O)O [sulfated ferulic acid (I), sulfated ferulic acid] | 2.06 | 0.01
2 | O=C(O)/C=C/c1ccc(O)c(O)c1 [trans-caffeic acid (III), trans-caffeic acid] | 2.06 | 2.06
3 | COc1cc(/C=C/C(=O)O)ccc1O [trans-ferulic acid (II), trans-ferulic acid] | 2.05 | 1.00
